Read-outs that look alike come from different tables or passages of the source.
Legend:
[1] = tested on: Key Broadleaf Weed and Crop Species; assay: Post-emergent Test II herbicidal activity (Table 5); assay type: in vivo; settings: post-emergence, 336 h, post-emergent, 14 days after application; for pest or weed control at 70 g/ha: 70 g ai/ha; for pest or weed control at 140 g/ha: 140 g ai/ha
Procedure, shortened: (§1)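 Greenhouse post-emergent assay: seedlings (first/second true leaf) in Metro-Mix 360 were sprayed at 187 L/ha at a top rate plus twofold dilutions down to 1/16×; solvent-blank controls were included. Percent visual injury was read at 14 d.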

[2] = tested on: Key Grass and Sedge Weeds as well as Grass Crops; assay: Post-emergent Test II herbicidal activity (Table 6); assay type: in vivo; settings: post-emergence, 336 h; for pest or weed control at 70 g/ha: application rate 70 g ai/ha; for pest or weed control at 140 g/ha: application rate 140 g ai/ha
Procedure, shortened: as §1

[3] = ABUTH: velvetleaf (Abutilon theophrasti), read-out: Visual Growth Reduction (%) 14 Days After Application ABUTH
[4] = AMARE: redroot pigweed (Amaranthus retroflexus), read-out: Visual Growth Reduction (%) 14 Days After Application AMARE
[5] = BRSNN: oilseed-rape, canola (Brassica napus), read-out: Visual Growth Reduction (%) 14 Days After Application BRSNN
[6] = CHEAL: lambsquarters (Chenopodium album), read-out: Visual Growth Reduction (%) 14 Days After Application CHEAL
[7] = EPHHL: wild poinsettia (Euphorbia heterophylla), read-out: Visual Growth Reduction (%) 14 Days After Application EPHHL
[8] = HELAN: sunflower (Helianthus annuus), read-out: Visual Growth Reduction (%) 14 Days After Application HELAN
[9] = VIOTR: wild pansy (Viola tricolor), read-out: Visual Growth Reduction (%) 14 Days After Application VIOTR
[10] = Triticum aestivum, TRZSS (wheat), read-out: Visual Growth Reduction (%) 14 Days After Application, TRZSS
[11] = CYPES: yellow nutsedge (Cyperus esculentus), read-out: Visual Growth Reduction (%) 14 Days After Application, CYPES
[12] = DIGSA: crabgrass (Digitaria sanguinalis), read-out: Visual Growth Reduction (%) 14 Days After Application, DIGSA
[13] = ECHCG: barnyardgrass (Echinochloa crus-galli), read-out: Visual Growth Reduction (%) 14 Days After Application, ECHCG
[14] = ORYSA: rice (Oryza sativa), read-out: Visual Growth Reduction (%) 14 Days After Application, ORYSA
[15] = SETFA: giant foxtail (Setaria faberi), read-out: Visual Growth Reduction (%) 14 Days After Application, SETFA
[16] = SORVU: grain sorghum (Sorghum vulgare), read-out: Visual Growth Reduction (%) 14 Days After Application, SORVU
[17] = ZEAMX: maize, corn (Zea mays), read-out: Visual Growth Reduction (%) 14 Days After Application, ZEAMX

Structure (SMILES) | pest or weed control at 70 g/ha [1, 3] | pest or weed control at 140 g/ha [1, 3] | pest or weed control at 70 g/ha [1, 4] | pest or weed control at 140 g/ha [1, 4] | pest or weed control at 70 g/ha [1, 5] | pest or weed control at 140 g/ha [1, 5] | pest or weed control at 70 g/ha [1, 6] | pest or weed control at 140 g/ha [1, 6] | pest or weed control at 70 g/ha [1, 7] | pest or weed control at 140 g/ha [1, 7] | pest or weed control at 70 g/ha [1, 8] | pest or weed control at 140 g/ha [1, 8] | pest or weed control at 70 g/ha [1, 9] | pest or weed control at 70 g/ha [2, 10] | pest or weed control at 140 g/ha [2, 10] | pest or weed control at 70 g/ha [2, 11] | pest or weed control at 140 g/ha [2, 11] | pest or weed control at 70 g/ha [2, 12] | pest or weed control at 140 g/ha [2, 12] | pest or weed control at 70 g/ha [2, 13] | also measured
COC(=O)c1nc(-c2ccc(Br)cc2F)cc(N)c1Cl [Compound 93] | 95 to 100% | 95 to 100% | 95 to 100% | 95 to 100% | 0 to 29% | 60 to 74% | 85 to 94% | 95 to 100% | 95 to 100% | 95 to 100% | 85 to 94% | 85 to 94% | 30 to 44% | 45 to 59% | 45 to 59% | 95 to 100% | 95 to 100% | 75 to 84% | 95 to 100% | 85 to 94% | pest or weed control at 140 g/ha [2, 13]: 85 to 94%; pest or weed control at 70 g/ha [2, 14]: 0 to 29%; pest or weed control at 140 g/ha [2, 14]: 0 to 29%; pest or weed control at 70 g/ha [2, 15]: 75 to 84%; pest or weed control at 140 g/ha [2, 15]: 75 to 84%; pest or weed control at 70 g/ha [2, 16]: 85 to 94%; pest or weed control at 140 g/ha [2, 16]: 95 to 100%; pest or weed control at 70 g/ha [2, 17]: 60 to 74%; pest or weed control at 140 g/ha [2, 17]: 75 to 84%; melting point: 98.9 to 101.6 °C
COC(=O)c1nc(-c2ccc(Br)c(F)c2)c(C)c(N)c1Cl [Compound 112, Methyl 4-amino-6-(4-bromo-3-fluorophenyl)-3-chloro-5-methylpicolinate] | 95 to 100% | 95 to 100% | 95 to 100% | 95 to 100% | 85 to 94% | 85 to 94% | 85 to 94% | 85 to 94% | 0 to 29% | 0 to 29% | 95 to 100% | 95 to 100% | 0 to 29% | 45 to 59% | 60 to 74% | 95 to 100% | 95 to 100% | 60 to 74% | 60 to 74% | 60 to 74% | pest or weed control at 140 g/ha [1, 9]: 0 to 29%; pest or weed control at 140 g/ha [2, 13]: 60 to 74%; pest or weed control at 70 g/ha [2, 14]: 0 to 29%; pest or weed control at 140 g/ha [2, 14]: 0 to 29%; pest or weed control at 70 g/ha [2, 15]: 85 to 94%; pest or weed control at 140 g/ha [2, 15]: 95 to 100%; pest or weed control at 70 g/ha [2, 16]: 85 to 94%; pest or weed control at 140 g/ha [2, 16]: 85 to 94%; pest or weed control at 70 g/ha [2, 17]: 60 to 74%; pest or weed control at 140 g/ha [2, 17]: 60 to 74%; melting point: 134 to 137 °C
COC(=O)c1nc(-c2cc(F)c(I)cc2F)cc(N)c1Cl [Compound 56] | 95 to 100% | 95 to 100% | 95 to 100% | 95 to 100% | 85 to 94% | 85 to 94% | 95 to 100% | 95 to 100% | 95 to 100% | 95 to 100% | 75 to 84% | 85 to 94% | 95 to 100% | 60 to 74% | 60 to 74% | 95 to 100% | 95 to 100% | 75 to 84% | 85 to 94% | 95 to 100% | pest or weed control at 140 g/ha [1, 9]: 95 to 100%; pest or weed control at 140 g/ha [2, 13]: 95 to 100%; pest or weed control at 70 g/ha [2, 14]: 0 to 29%; pest or weed control at 140 g/ha [2, 14]: 0 to 29%; pest or weed control at 70 g/ha [2, 15]: 95 to 100%; pest or weed control at 140 g/ha [2, 15]: 95 to 100%; pest or weed control at 70 g/ha [2, 16]: 75 to 84%; pest or weed control at 140 g/ha [2, 16]: 85 to 94%; pest or weed control at 70 g/ha [2, 17]: 85 to 94%; pest or weed control at 140 g/ha [2, 17]: 85 to 94%; melting point: 142 to 144 °C
COC(=O)c1nc(-c2ccc(Br)cc2)c(Cl)c(N)c1Cl [Compound 47] | 95 to 100% | 95 to 100% | 95 to 100% | 95 to 100% | 95 to 100% | 95 to 100% | 95 to 100% | 95 to 100% | 85 to 94% | 95 to 100% | 95 to 100% | 95 to 100% | 0 to 29% | 45 to 59% | 45 to 59% | 85 to 94% | 95 to 100% | 75 to 84% | 75 to 84% | 85 to 94% | pest or weed control at 140 g/ha [1, 9]: 0 to 29%; pest or weed control at 140 g/ha [2, 13]: 85 to 94%; pest or weed control at 70 g/ha [2, 14]: 0 to 29%; pest or weed control at 140 g/ha [2, 14]: 0 to 29%; pest or weed control at 70 g/ha [2, 15]: 85 to 94%; pest or weed control at 140 g/ha [2, 15]: 95 to 100%; pest or weed control at 70 g/ha [2, 16]: 85 to 94%; pest or weed control at 140 g/ha [2, 16]: 85 to 94%; pest or weed control at 70 g/ha [2, 17]: 85 to 94%; pest or weed control at 140 g/ha [2, 17]: 85 to 94%; melting point: 159.6 to 161.1 °C

Source: patent US9113629B2, “4-amino-6-(4-substituted-phenyl)-picolinates and 6-amino-2-(4-substituted-phenyl)-pyrimidine-4-carboxylates and their use as herbicides” (DOW AGROSCIENCES LLC, priority 2013, dated 2015)
